Reference: patent US20210309677A1, “NOVEL AMINOPHOSPHINIC DERIVATIVES AS AMINOPEPTIDASE A INHIBITORS” (QUANTUM GENOMICS, priority 2018, published 2021)

target: T1, recombinant mouse APA (Mus musculus, UniProt P16406); assay: Measurement of APA activity in vitro (hydrolysis of GluβNa, colorimetric); type: biochemical; details: 200 μM Glu-βNa, pH 7.4, 37° C., 4 mM CaCl2, read-out: In vitro inhibition of aminopeptidase A, IC50 classification
T1 sequence (P16406 1-945): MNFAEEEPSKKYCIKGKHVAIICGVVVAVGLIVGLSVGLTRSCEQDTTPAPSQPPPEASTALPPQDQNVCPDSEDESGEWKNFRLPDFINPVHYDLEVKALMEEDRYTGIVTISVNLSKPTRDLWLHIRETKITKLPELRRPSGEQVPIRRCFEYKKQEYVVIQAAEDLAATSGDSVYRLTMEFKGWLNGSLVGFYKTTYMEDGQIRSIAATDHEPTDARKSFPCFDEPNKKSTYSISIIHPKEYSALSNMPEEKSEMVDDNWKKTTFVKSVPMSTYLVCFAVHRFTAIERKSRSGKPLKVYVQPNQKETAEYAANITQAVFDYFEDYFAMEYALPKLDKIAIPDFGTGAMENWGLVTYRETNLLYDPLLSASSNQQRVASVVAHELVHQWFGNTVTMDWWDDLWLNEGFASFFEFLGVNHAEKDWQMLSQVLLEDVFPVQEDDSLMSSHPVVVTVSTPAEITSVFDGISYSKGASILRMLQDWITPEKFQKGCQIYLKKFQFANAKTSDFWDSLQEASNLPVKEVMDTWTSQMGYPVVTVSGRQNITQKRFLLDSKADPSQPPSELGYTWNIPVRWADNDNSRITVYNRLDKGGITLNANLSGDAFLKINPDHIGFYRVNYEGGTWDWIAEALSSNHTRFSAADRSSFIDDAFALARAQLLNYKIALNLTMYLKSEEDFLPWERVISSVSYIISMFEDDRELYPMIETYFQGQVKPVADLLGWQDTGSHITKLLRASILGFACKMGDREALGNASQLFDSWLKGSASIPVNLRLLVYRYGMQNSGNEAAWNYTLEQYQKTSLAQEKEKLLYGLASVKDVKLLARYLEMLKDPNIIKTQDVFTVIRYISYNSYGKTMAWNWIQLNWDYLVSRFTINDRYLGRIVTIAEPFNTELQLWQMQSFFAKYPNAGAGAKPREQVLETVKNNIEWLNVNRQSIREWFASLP
Source text: Measurement of APA activity in vitro is based on the protocol of Goldbarg adjusted to the scale of assaying on microplates (Pro Bind™ 3915) (Chauvel et al., 1994). In vitro, in the presence of calcium ions, APA hydrolyses a synthetic substrate α-L-glutamyl-β-naphthylamide (GluβNa) to glutamate and β-naphthylamine ((βNa). A diazotation reaction in acidic medium makes it possible to reveal the β-naphthylamine by formation of a violet-coloured complex: spectrophotometric measurement then makes it possible to know the amount of complex formed and, by reference to a standard curve produced with increasing concentrations of β-naphthylamine, to deduce the enzymatic activity of the sample.
The Glu-βNa substrate (Bachem) and the β-naphthylamine (Sigma) are dissolved in 50% DMSO (dimethyl sulphoxide) and 0.1 N HCl respectively, and conserved at −20° C. at a concentration of 10^−2 M. The diazotation reaction is carried out in the presence of sodium nitrite (87 mM), ammonium sulfamate (130 mM) and N-(1-naphthyl)-ethylenediamine dihydrochloride (23 mM in 95% ethanol).
The reaction takes place at pH 7.4 in 50 mM tris-HCl buffer, in the presence of calcium (4 mM CaCl2); recombinant mouse APA is incubated at 37° C. in the presence of the substrate (200 μM Glu-βNa) and in the presence or absence of various concentrations of the inhibitor to be tested, in a final volume of 100 μL. The reaction is stopped by adding 10 μL, of 3N HCl. A standard curve of β-naphthylamine was prepared in parallel by diazotizing increasing concentrations (up to 0.2 mM) of 2-naphthylamine in 0.1 N HCl.
The following are added to each well: 25 μL of sodium nitrite (NaNO2) (mix, wait 5 minutes at room temperature), 50 μI, of ammonium sulfamate (mix, wait 5 minutes at room temperature), then add 25 μL of N-(1-naphthyl) ethylenediamine dihydrochloride (mix, wait for stabilization of the violet colour for approximately 30 minutes at 37° C.). The absorbance is then measured at 540 nm.
The compound EC33 ((S)-3 amino-4-mercapto-butylsulfonic acid) described in application WO 99/36066 was used as a reference compound.

IC50 [nM] | SMILES
30 to 300 | CC(C)CCCCP(=O)(O)C(N)CCC(=O)O (centres unmarked) [Example 3, 4-amino-4-[hydroxy(5-methylhexyl)phosphoryl]butanoic acid]
30 to 300 | NC(CCC(=O)O)P(=O)(O)CCCC(F)(F)F (centres unmarked) [Example 6, 4-amino-4-[hydroxy(4,4,4-trifluorobutyl)phosphoryl]butanoic acid]
< 30 | NC(CCC(=O)O)P(=O)(O)CC1CCCCC1 (centres unmarked) [Example 10, 4-amino-4-[(cyclohexylmethyl)(hydroxy)phosphoryl]butanoic acid]
30 to 300 | CCCCCP(=O)(O)C(N)CCC(=O)O (centres unmarked) [Example 4, 4-amino-4-[hydroxy(pentyl)phosphoryl]butanoic acid]
< 30 | NC(CCC(=O)O)P(=O)(O)CC1CCCC1 (centres unmarked) [Example 9, 4-amino-4-[(cyclopentylmethyl)(hydroxy)phosphoryl]butanoic acid]
30 to 300 | CCCCCCP(=O)(O)C(N)CCC(=O)O (centres unmarked) [Example 5, 4-amino-4-[hexyl(hydroxy)phosphoryl]butanoic acid]
30 to 300 | CC(C)CCCP(=O)(O)C(N)CCC(=O)O (centres unmarked) [Example 2, 4-amino-4-[hydroxy(4-methylpentyl)phosphoryl]butanoic acid]
< 30 | NC(CCC(=O)O)P(=O)(O)CC1CCC1 (centres unmarked) [Example 8, 4-amino-4-[(cyclobutylmethyl)(hydroxy)phosphoryl]butanoic acid]
30 to 300 | CC(C)CCP(=O)(O)C(N)CCC(=O)O (centres unmarked) [Example 1, 4-amino-4-[hydroxy(3-methylbutyl)phosphoryl]butanoic acid]
300 to 10000 | N[C@H](CS)CCS(=O)(=O)O [EC33, (S)-3 amino-4-mercapto-butylsulfonic acid, reference compound]
30 to 300 | NC(CCC(=O)O)P(=O)(O)CCC1CCCCC1 (centres unmarked) [Example 7, 4-amino-4-[(2-cyclohexylethyl)(hydroxy)phosphoryl]butanoic acid]
